Measurements: patent publication US20230310534A1, “QUENCHERS THAT SLOW, DECREASE, OR INHIBIT THE FORMATION OF CHEMIEXCITATION-INDUCED CYCLOBUTANE PYRIMIDINE DIMERS” (L'OREAL, priority 2017, published 2023)

Key:
Type in all cases: biochemical
[1] = Superoxide radical absorbance capacity (SORAC) test, WST-1 probe; conditions: activity grade 0-4
Procedure: Superoxide radical absorbance capacity tests were conducted to measure the capacity of an antioxidant material to dismutate superoxide anion. The Varioskan Flush was employed to measure the superoxide dismutase-catalyzed dismutation of the superoxide anion in the presence of the absorbance probe, water-soluble tetrazolium salt (WST-1). The superoxide radical antioxidant (SORAC) assay is based on an inhibition assay and is suitable for evaluating superoxide dismutase or superoxide dismutase-like activities in samples.

[2] = Peroxynitrite radical absorbance capacity test, dihydrorhodamine 123 indicator; conditions: activity grade 0-4
Procedure: Peroxynitrite radical absorbance capacity tests were conducted to measure the capacity of an antioxidant material to quench peroxynitrite. Dihydrorhodamine 123 was used as an indicator of peroxynitrite in tubo for peroxynitrite radical absorbance capacity tests with Varioskan Flush. […]

[3] = Melanin oxidation assay (peroxynitrite/melanin chemiluminescence quenching); conditions: peroxynitrite, melanin and DBAS in DMSO; measured at 150 seconds and 500 seconds
Source text: An easy and fast assay was developed to measure quenching of chemiluminescence from the triplet carbonyl of a cleaved dioxetane that was created when peroxynitrite (ONOO—) reacted with melanin. As such, it measured both triplet quenching and any scavenging activity that prevented the chemiexcitation reaction from starting. DMSO was used as a solvent for the entire reaction, DBAS to enhance the luminescence and a liquid scintillation counter set to single-photon mode to detect the luminescence signal.
In this assay, peroxynitrite, melanin, and DBAS were incubated in DMSO in the absence or presence of test agents, and light emission quenching (%) was measured at 150 seconds and 500 seconds (FIG. 1).

Structure (SMILES) | Anti-superoxide [1] | Anti-peroxynitrite [2] | light emission quenching (hit) [3]
O=c1oc2c(O)c(O)cc3c(=O)oc4c(O)c(O)cc1c4c23 [Ellagic acid] | 2 | 4 | showed a quenching effect
O=C(O[C@@H]1Cc2c(O)cc(O)cc2O[C@@H]1c1cc(O)c(O)c(O)c1)c1cc(O)c(O)c(O)c1 [Epigallocatechin Gallate] | 4 | 4 | showed a quenching effect
COc1cc(/C=C/C(=O)O)ccc1O [Ferulic Acid] | 1 | 4 | showed a quenching effect
CC1=C(/C=C/C(C)=C/C=C/C(C)=C/C=C/C=C(C)/C=C/C=C(C)/C=C/C2=C(C)CCCC2(C)C)C(C)(C)CCC1 [beta-carotene] |  |  | showed a quenching effect
O=C(O)c1cccc(C(=O)O)n1 [dipicolinic acid] |  |  | showed a quenching effect
C/C=C/C=C/C(=O)O [sorbic acid] |  |  | showed a quenching effect
CC(C)=CCC/C(C)=C/CC/C(C)=C/CC/C=C(\C)CC/C=C(\C)CCC=C(C)C [squalene] |  |  | showed a quenching effect
